From patent publication US4446151A, “Decarboxylase-inhibiting fluorinated pentane diamine derivatives” (Merrell Toraude et Compagnie, priority 1982, dated 1984)

Molecular target: T1, ornithine decarboxylase (ODC) (Rattus norvegicus, UniProt P09057)
T1 construct: is prepared from the livers of rats which have been injected with thioacetamide; from tissue; host or cells: liver of rats injected with thioacetamide (150 mg/kg, 18 h before sacrifice); purified about ten fold by acid treatment at pH 4.6
T1 sequence (P09057 1-461): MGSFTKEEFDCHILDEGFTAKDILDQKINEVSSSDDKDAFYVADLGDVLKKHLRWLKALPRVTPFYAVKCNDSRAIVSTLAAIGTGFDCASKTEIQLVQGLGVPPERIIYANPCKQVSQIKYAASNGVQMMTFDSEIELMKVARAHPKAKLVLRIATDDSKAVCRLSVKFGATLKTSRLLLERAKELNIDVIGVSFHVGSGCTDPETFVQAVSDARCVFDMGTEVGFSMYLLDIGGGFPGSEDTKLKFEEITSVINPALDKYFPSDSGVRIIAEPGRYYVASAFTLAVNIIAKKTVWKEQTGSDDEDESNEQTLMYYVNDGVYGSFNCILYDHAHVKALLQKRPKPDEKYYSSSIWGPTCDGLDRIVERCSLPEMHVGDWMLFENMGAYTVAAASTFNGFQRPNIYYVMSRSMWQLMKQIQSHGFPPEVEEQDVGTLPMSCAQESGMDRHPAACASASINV
Assay: in vitro inhibition (time-dependent inactivation) of ornithine decarboxylase (ODC) prepared from rat liver
Assay type: biochemical
Settings: 37° C.; for .tau.50 (half-life, at infinite concentration of inhibitor): pH 7.1, Kitz and Wilson; for Half-life (t1/2) at 10 μM: inhibitor at 10 μM, pH 7.1
Method: At different times 50 μl aliquots are transferred into a 1 mL assay medium containing sodium phosphate (30 mM, pH 7.1), dithiothreitol (5 mM), pyridoxal phosphate (0.1 mM), L-ornithine (0.081 μmol), and DL-[1-^14 C]ornithine (0.043 μmol, 58 Ci/mol, Amersham) in a closed vessel in which a filter paper moistered with 50 μl hyamine hydroxide (1M) is fitted. The reaction is allowed to proceed for 60 min at 37° C. and then terminated by addition of 0.5 ml of 40% trichloroacetic acid. After an additional 30 min, the CO2 absorbed on the filter paper is counted in a standard scintillation cocktail.

Row | SMILES | .tau.50 (half-life, at infinite concentration of inhibitor) [min] | Half-life (t1/2) at 10 μM [min]
1 | NCC(=O)CC(N)(CF)C(=O)O (stereo not shown) [A, 2-fluoromethyl-2,5-diamino-4-oxo-pentanoic acid] | 3.1 | 4.5
2 | C=C(CN)CC(N)CF (stereo not shown) [B, 1-fluoro-2,5-diamino-4-methylene-pentane] | 2.6 | 6.4
3 | NCC(=O)CC(N)CF (stereo not shown) [C, 1-fluoro-2,5-diamino-4-oxo-pentane] | 1.6 | 2.8
4 | C=C(CN)CC(N)(CF)C(=O)O (stereo not shown) [D, 2-fluoromethyl-2,5-diamino-4-methylene-pentanoic acid] | 3.6 | 23
5 | C=C(CN)CC(N)C(F)F (stereo not shown) [E, 1,1-difluoro-2,5-diamino-4-methylene-pentane] | 2.2 | 14
